Reference: ChEMBL document CHEMBL6087476, “Positive Charge-Concentrated Dimeric Lipopeptides with Enhanced Protease Resistance: A Potential Solution for Systemic Bacterial Infections” (J Med Chem, 2025)
Values after ≈ are worked out from the molar mass of the structure shown. Active and inactive are the calls of the source. The rule behind the calls is not given here.

Assays:
Escherichia coli [1] = experiment: Antimicrobial activity against Escherichia coli ATCC 25922 assessed as increase in absorbance incubated for 20 to 22 hrs; format: functional; details: time 20-22 hrs
Escherichia coli [2] = experiment: Antimicrobial activity against Escherichia coli K99 assessed as increase in absorbance incubated for 20 to 22 hrs; format: functional; details: time 20-22 hrs
Salmonella typhimurium = experiment: Antimicrobial activity against Salmonella typhimurium 7731 assessed as increase in absorbance incubated for 20 to 22 hrs; format: functional, Salmonella enterica subsp. enterica serovar Typhimurium; details: Salmonella enterica, time 20-22 hrs
Enterococcus faecalis = experiment: Antimicrobial activity against Enterococcus faecalis 29212 assessed as increase in absorbance incubated for 20 to 22 hrs; format: functional; details: time 20-22 hrs
[3] = Hemolytic activity in healthy human RBC assessed as hemolysis incubated for 1 hr by microplate reader; format: toxicity, cell-based; details: erythrocyte
[4] = Cytotoxicity against porcine IPEC-J2 cells assessed as cell death measured after 18 to 24 hrs by MTT assay; format: functional; details: Sus scrofa, time 18-24 hrs
Acinetobacter baumannii = experiment: Antimicrobial activity against Acinetobacter baumannii AB1901 assessed as increase in absorbance incubated for 20 to 22 hrs; format: functional; details: time 20-22 hrs
Pseudomonas aeruginosa = experiment: Antimicrobial activity against Pseudomonas aeruginosa 25349 assessed as increase in absorbance incubated for 20 to 22 hrs; format: functional; details: time 20-22 hrs
Escherichia coli [5] = experiment: Antimicrobial activity against Escherichia coli ATCC 25922 assessed as increase in absorbance incubated for 20 to 22 hrs in presence of Fe3+ physiological salt; format: functional, organism-based; details: time 20-22 hrs
Escherichia coli [6] = experiment: Antimicrobial activity against Escherichia coli ATCC 25922 assessed as increase in absorbance incubated for 20 to 22 hrs in presence of Mg2+ physiological salt; format: functional, organism-based; details: time 20-22 hrs
Escherichia coli [7] = experiment: Antimicrobial activity against Escherichia coli ATCC 25922 assessed as increase in absorbance incubated for 20 to 22 hrs in presence of […] physiological salt; format: functional, organism-based; details: time 20-22 hrs
Escherichia coli [8] = experiment: Antimicrobial activity against Escherichia coli ATCC 25922 assessed as increase in absorbance incubated for 20 to 22 hrs in presence of NH4+ physiological salt; format: functional, organism-based; details: time 20-22 hrs
Escherichia coli [9] = experiment: Antimicrobial activity against Escherichia coli ATCC 25922 assessed as increase in absorbance incubated for 20 to 22 hrs in presence of K+ physiological salt; format: functional, organism-based; details: time 20-22 hrs
Escherichia coli [10] = experiment: Antimicrobial activity against Escherichia coli ATCC 25922 assessed as increase in absorbance incubated for 4 hrs in presence of 12.5% serum; format: functional, organism-based
Escherichia coli [11] = experiment: Antimicrobial activity against Escherichia coli ATCC 25922 assessed as increase in absorbance incubated for 4 hrs in presence of 25% serum; format: functional, organism-based
Escherichia coli [12] = experiment: Antimicrobial activity against Escherichia coli ATCC 25922 assessed as increase in absorbance at 8 mg/ml incubated for 8 hrs in presence of trypsin; format: functional, organism-based
Trypsin = Trypsin (Homo sapiens, UniProt P07477+P07478+P35030); experiment: Stability of compound assessed as trypsin (unknown origin)-mediated compound structural integrity change at 8 mg/ml incubated for 1 to 8 hrs by 16.5% tricine-SDS-PAGE analysis; format: ADME, protein assay; details: time 1-8 hrs
Chymotrypsin = Chymotrypsin (Homo sapiens, UniProt Q99895+P17538+P40313+Q6GPI1); experiment: Stability of compound assessed as chymotrypsin (unknown origin)-mediated compound structural integrity change at 8 mg/ml incubated for 1 to 8 hrs by RP-HPLC analysis; format: ADME, protein assay; details: time 1-8 hrs
[13] = Stability of compound assessed as pepsin (unknown origin)-mediated compound structural integrity change at 8 mg/ml incubated for 1 to 8 hrs by RP-HPLC analysis; format: ADME; details: human, time 1-8 hrs
Escherichia coli [14] = experiment: Antibiofilm activity against Escherichia coli ATCC 25922 biofilm assessed as removal of matured biofilm at 16 uM; format: functional, organism-based
Lipopolysaccharide (LPS) = experiment: Binding affinity to Escherichia coli O111:B4 Lipopolysaccharide by fluorescent probe BODIPYTR-cadaverine (BC) assay; details: dose 1-16 µM
Escherichia coli [15] = experiment: Reduction in intracellular ATP level in Escherichia coli ATCC 25922 at 2 uM measured after 1 hr incubation by Enhanced ATP assay kit; format: functional; design: scale not given: the % may be the effect or the level left
Escherichia coli [16] = experiment: Induction of membrane damage in Escherichia coli ATCC 25922 assessed as damaged membrane surface by analysing leakage (hollow interiors) at 8 uM measured after 1 hr incubation by TEM analysis; format: functional, organism-based
Escherichia coli [17] = experiment: Bactericidal activity against Escherichia coli ATCC 25922 assessed as reduction in bacterial viability; format: functional, organism-based
Escherichia coli [18] = experiment: Bactericidal activity against Escherichia coli ATCC 25922 assessed as reduction in bacterial viability at 4 uM measured within 30 mins; format: functional; details: 0.5 h
Escherichia coli [19] = experiment: Bactericidal activity against Escherichia coli ATCC 25922 assessed as reduction in bacterial viability at 4 uM measured within 2 hrs; format: functional, organism-based
[20] = Toxicity in ICR mouse assessed as humpbacking at 20 mg/kg, ip measured within 1 hr; format: organism-based; details: in vivo
[21] = Toxicity in ICR mouse assessed as reduced mobility at 20 mg/kg, ip measured within 1 hr; format: organism-based; details: in vivo
[22] = Toxicity in ICR mouse assessed as slight manifestation of stooping at 20 mg/kg, ip measured after 1 hr; format: organism-based; details: in vivo
[23] = Toxicity in ICR mouse assessed as humpbacking at 20 mg/kg, ip measured after 1 hr; format: organism-based; details: in vivo
[24] = Toxicity in ICR mouse assessed as reduced mobility at 20 mg/kg, ip measured after 1 hr; format: organism-based; details: in vivo
[25] = Toxicity in ICR mouse assessed as body weight change at 5 to 20 mg/kg, ip measured after 3 days; format: organism-based; details: in vivo, 72 h, dose 5-20 mg/kg, time 3 day
[26] = Toxicity in ICR mouse assessed as kidney weight change at 5 to 20 mg/kg, ip measured after 3 days; format: organism-based; details: in vivo, 72 h, dose 5-20 mg/kg, time 3 day
[27] = Toxicity in ICR mouse assessed as hepatic cords morphology at 5 to 20 mg/kg, ip measured after 3 days by histopathological H and E staining based assay; format: organism-based; details: in vivo, 72 h, dose 5-20 mg/kg, time 3 day
Escherichia coli [28] = experiment: Antibacterial activity against Escherichia coli ATCC 25922 injected intraperitoneally in ICR mouse assessed as reduction bacterial load in liver at 10 mg/kg, ip measured after 12 hrs by H and E staining based assay; format: functional, organism-based
Escherichia coli [29] = experiment: Antibacterial activity against Escherichia coli ATCC 25922 injected intraperitoneally in ICR mouse assessed as reduction bacterial load in lung at 10 mg/kg, ip measured after 12 hrs by H and E staining based assay; format: functional, organism-based
Escherichia coli [30] = experiment: Antibacterial activity against Escherichia coli ATCC 25922 injected intraperitoneally in ICR mouse assessed as reduction bacterial load in kidney at 10 mg/kg, ip measured after 12 hrs by H and E staining based assay; format: functional, organism-based
Mus musculus [31] = experiment: Anti-inflammatory activity against Escherichia coli ATCC 25922-induced peritonitis ICR mouse model assessed as decrease in IL-1 beta level in serum spleen at 10 mg/kg, ip measured after 12 hrs; format: functional, organism-based
Mus musculus [32] = experiment: Anti-inflammatory activity against Escherichia coli ATCC 25922-induced peritonitis ICR mouse model assessed as decrease in IL-6 level in serum spleen at 10 mg/kg, ip measured after 12 hrs; format: functional, organism-based
Mus musculus [33] = experiment: Anti-inflammatory activity against Escherichia coli ATCC 25922-induced peritonitis ICR mouse model assessed as decrease in TNF-alpha level in serum spleen at 10 mg/kg, ip measured after 12 hrs; format: functional, organism-based

SMILES: CCCCCCCCCC(=O)NCCCC[C@H](N)C(=O)NCC(=O)NCC(=O)NCC(=O)N[C@H](CCCNC(=N)N)C(=O)N[C@@H](CCCNC(=N)N)C(=O)N[C@@H](CCCNC(=N)N)C(=O)N1CCC[C@H]1C(=O)N[C@@H](CSSC[C@H](NC(=O)[C@@H]1CCCN1C(=O)[C@H](CCCNC(=N)N)NC(=O)[C@H](CCCNC(=N)N)NC(=O)[C@@H](CCCNC(=N)N)NC(=O)CNC(=O)CNC(=O)CNC(=O)[C@@H](N)CCCCNC(=O)CCCCCCCCC)C(=O)O)C(=O)O
- MIC (Escherichia coli [1]): 4 µM (≈ 9.12 µg/mL)
- MIC (Escherichia coli [2]): 4 µM (≈ 9.12 µg/mL)
- MIC (Salmonella typhimurium): 4 µM (≈ 9.12 µg/mL)
- MIC (Enterococcus faecalis): 4 µM (≈ 9.12 µg/mL)
- HC10 [3]: 256 µM
- IC10 [4]: 256 µM
- MIC (Acinetobacter baumannii): 4 µM (≈ 9.12 µg/mL)
- MIC (Pseudomonas aeruginosa): 4 µM (≈ 9.12 µg/mL)
- Activity (Escherichia coli [5]): Active; C-C10)C-C Demonstrated Superior Physiological Salt Tolerance In Comparison To (N-C10)C-C
- Activity (Escherichia coli [6]): Active; C-C10)C-C Demonstrated Superior Physiological Salt Tolerance In Comparison To (N-C10)C-C
- Activity (Escherichia coli [7]): Active; C-C10)C-C Demonstrated Superior Physiological Salt Tolerance In Comparison To (N-C10)C-C
- Activity (Escherichia coli [8]): Active; C-C10)C-C Demonstrated Superior Physiological Salt Tolerance In Comparison To (N-C10)C-C
- Activity (Escherichia coli [9]): Active; C-C10)C-C Demonstrated Superior Physiological Salt Tolerance In Comparison To (N-C10)C-C
- Activity (Escherichia coli [10]): Active
- Activity (Escherichia coli [11]): Active
- Activity (Escherichia coli [12]): Active; Negligible Alteration In Mic Values Found
- Stability (Trypsin): Stable
- Stability (Chymotrypsin): Stable
- Stability [13]: Stable
- Activity (Escherichia coli [14]): Active
- Activity (Lipopolysaccharide (LPS)): Dose-dependent-effect
- Activity (Escherichia coli [15]): ~40%
- Activity (Escherichia coli [16]): Active
- Activity (Escherichia coli [17]): Dose-dependent-effect
- Activity (Escherichia coli [18]): ~80%
- Activity (Escherichia coli [19]): inactive
- Activity [20]: Toxic
- Activity [21]: Toxic
- Activity [22]: Non-toxic
- Activity [23]: Non-toxic
- Activity [24]: Non-toxic
- Activity [25]: Non-toxic
- Activity [26]: Non-toxic
- Activity [27]: Non-toxic
- Activity (Escherichia coli [28]): Active
- Activity (Escherichia coli [29]): Active
- Activity (Escherichia coli [30]): Active
- Activity (Mus musculus [31]): Active
- Activity (Mus musculus [32]): Active
- Activity (Mus musculus [33]): Active
